Source: patent publication US20050255595A1, “Genetically modified non-human mammal cells, procedure for their production and use in toxicity tests” (priority 2002, published 2005)
Where two headings read alike, the source gives them in different places.

Tests used:
[1] = system: primary hepatocytes (PHGH); assay: cellular survival of PHGH, Trypan Blue exclusion; type: cell-based, mice; parameters: % cellular survival, PHGH 1 + 24 h / % cellular survival, PHGH 5 + 24 / % vitality of the cells, PHGH 1 + 24 h / % vitality of the cells, PHGH 5 + 24 h: unit of the concentration uncertain; conditions: for % vitality of the cells, PHGH 1 + 24 h / % cellular survival, PHGH 1 + 24 h: 1 h treatment + 24 h normal medium; for % vitality of the cells, PHGH 5 + 24 h / % cellular survival, PHGH 5 + 24: 5 h treatment + 24 h normal medium
Source text: (§1) This different behaviour is explained by the greater sensitivity to the toxicant of the PHGH with respect to the MMH/GH5 as shown by analysis of the cellular vitality performed with the Trypan Blue method (FIG. 1, graph B). […] Therefore the greater resistance of the cells MMH/GH/5 to the toxicants constitutes another evident advantage as it permits the exclusion of false negatives in which the non-release of hGH, due to cellular death, is interpreted as non-toxicity of the compound. When the supernatant is collected after 5 hours of treatment followed by 24 hours of culture with normal medium (FIG. 1 graph C) the PHGHs respond, at the lowest concentrations of the two toxicants, with high levels of secretion of hGH and, at the highest concentrations, with low levels of secretion of hGH (lower cellular survival, graph D).
(§2) In table 3 the cellular survival percentage was determined with the Trypan Blue exclusion method. […]
(§3) For treatment, the two types of cells were treated with different concentrations of the compounds for 1 or 5 hours and then with normal medium for a further 24 hours. The effects of the treatment were assessed as described previously for the inorganic toxicants.

MMH/GH5 cells = assay: cellular survival of MMH/GH5, Trypan Blue exclusion; type: cell-based, mice; parameters: % cellular survival, MMHGH/5 1 + 24 h / % cellular survival, MMHGH/5 5 + 24 / % vitality of the cells, MMH/GH 1 + 24 h / % vitality of the cells, MMH/GH 5 + 24 h: unit of the concentration uncertain; conditions: for % vitality of the cells, MMH/GH 1 + 24 h / % cellular survival, MMHGH/5 1 + 24 h: 1 h treatment + 24 h normal medium; for % vitality of the cells, MMH/GH 5 + 24 h / % cellular survival, MMHGH/5 5 + 24: 5 h treatment + 24 h normal medium
Source text: as §1, §2, §3

MMH/GH5 cells (Clone 5) = system: MMH/GH5 cells (Clone 5); parameters: hGH secreted, MMHGH/5 1 + 24 h / hGH secreted, MMHGH/5 5 + 24 / hGH secreted, MMHGH/5 1 h / hGH secreted, MMHGH/5 5 h: dose or concentration left out as unconfirmed
[2] = system: single transgenic HPS70/hGH primary hepatocytes (PHGH); assay: toxicity test, hGH secretion by primary transgenic hepatocytes (PHGH); type: cell-based, mice; parameters: hGH secreted, PHGH 1 h / hGH secreted, PHGH 5 h / hGH secreted, PHGH 1 + 24 h / hGH secreted, PHGH 5 + 24: unit of the concentration uncertain
Source text: On the basis of the results illustrated, for the further analyses, clone no. […] The response to the toxic stress of the clone MMH/GH5 was then compared with the one obtained in single transgenic HPS70/hGH primary hepatocytes (PHGH). A representative sample of the cell line derived from said clone MMH/GH5 was deposited in accordance with and for the purposes of the Treaty of Budapest on the international recognition of deposit of micro-organisms for the purposes of the patents procedure with the AID “Centro di Biotecnologie Avanzate (CBA), Interlab Cell Line Collection (ICLC)” Servizio Biotecnologie, Largo R. Benzi, 10, 16132 Genova, Italy, on Jul. 30, 2002, where it was given identification number PD 02007.
as §2, §3

[3] = 50 (unit uncertain), Trypan Blue (Table 4)
[4] = 100 (unit uncertain), Trypan Blue
[5] = 25 (unit uncertain), 1 h treatment
[6] = 25 (unit uncertain), 1 h treatment + 24 h normal medium
[7] = 25 (unit uncertain), 5 h treatment
[8] = 25 (unit uncertain), 5 h treatment + 24 h normal medium
[9] = 50 (unit uncertain), 1 h treatment (Table 3)
[10] = 50 (unit uncertain), 1 h treatment + 24 h normal medium (Table 3)
[11] = 50 (unit uncertain), 5 h treatment (Table 3)
[12] = 50 (unit uncertain), 5 h treatment + 24 h normal medium (Table 3)
[13] = 25 (unit uncertain), Trypan Blue
[14] = 50 (unit uncertain), Trypan Blue (Table 3)
[15] = 25, 1 h treatment + 24 h normal medium
[16] = 25, 5 h treatment + 24 h normal medium
[17] = 50, 1 h treatment + 24 h normal medium (Table 3)
[18] = 50, 5 h treatment + 24 h normal medium (Table 3)

Structure (SMILES): O=[As][O-].[Na+] [NaAsO2]
- hGH secreted, 5 + 24 h (MMH/GH cells, Clone 11): 0
- hGH secreted, 5 + 24 h (MMH/GH cells, Clone 4): 0
- hGH secreted, 5 h (MMH/GH cells, Clone 4): 0

Structure (SMILES): Oc1c(Cl)c(Cl)c(Cl)c(Cl)c1Cl [PCP, PentaChloroPhenol]
- % vitality of the cells, PHGH 1 + 24 h [1, 3]: 10%
- % vitality of the cells, PHGH 5 + 24 h [1, 3]: 10%
- % vitality of the cells, PHGH 1 + 24 h [1, 4]: 0%
- % vitality of the cells, PHGH 5 + 24 h [1, 4]: 0%
- toxicity for the PHGHs ([1]; words, Table 4): toxic
- % vitality of the cells, MMH/GH 1 + 24 h (MMH/GH5 cells; [3]): 90%
- % vitality of the cells, MMH/GH 5 + 24 h (MMH/GH5 cells; [3]): 70%
- % vitality of the cells, MMH/GH 1 + 24 h (MMH/GH5 cells; [4]): 80%
- % vitality of the cells, MMH/GH 5 + 24 h (MMH/GH5 cells; [4]): 50%
- induction of a response in MMH/GH5 (MMH/GH5 cells (Clone 5); words, Table 4): requires a prolonged exposure time to induce a response

Structure (SMILES): CCCCC[C@H](O)/C=C/[C@H]1C=CC(=O)[C@@H]1CCCCCCC(=O)O [PGA1]
- hGH secreted, PHGH 1 h [2, 5]: 9 pg hGH/10^6 cells
- hGH secreted, PHGH 1 + 24 h [2, 6]: 13 pg hGH/10^6 cells
- hGH secreted, PHGH 5 h [2, 7]: 16 pg hGH/10^6 cells
- hGH secreted, PHGH 5 + 24 [2, 8]: 69 pg hGH/10^6 cells
- hGH secreted, PHGH 1 h [2, 9]: 7 pg hGH/10^6 cells
- hGH secreted, PHGH 1 + 24 h [2, 10]: 4 pg hGH/10^6 cells
- hGH secreted, PHGH 5 h [2, 11]: 17 pg hGH/10^6 cells
- hGH secreted, PHGH 5 + 24 [2, 12]: 522 pg hGH/10^6 cells
- % cellular survival, PHGH 1 + 24 h [1, 13]: 95%
- % cellular survival, PHGH 5 + 24 [1, 13]: 90%
- % cellular survival, PHGH 1 + 24 h [1, 14]: 90%
- % cellular survival, PHGH 5 + 24 [1, 14]: 70%
- % cellular survival, MMHGH/5 1 + 24 h (MMH/GH5 cells; [13]): 90%
- % cellular survival, MMHGH/5 5 + 24 (MMH/GH5 cells; [13]): 90%
- % cellular survival, MMHGH/5 1 + 24 h (MMH/GH5 cells; [14]): 90%
- % cellular survival, MMHGH/5 5 + 24 (MMH/GH5 cells; [14]): 90%
- hGH secreted, MMHGH/5 1 h (MMH/GH5 cells (Clone 5); 25, 1 h treatment): 10 pg hGH/10^6 cells
- hGH secreted, MMHGH/5 1 + 24 h (MMH/GH5 cells (Clone 5); [15]): 0 pg hGH/10^6 cells
- hGH secreted, MMHGH/5 5 h (MMH/GH5 cells (Clone 5); 25, 5 h treatment): 27 pg hGH/10^6 cells
- hGH secreted, MMHGH/5 5 + 24 (MMH/GH5 cells (Clone 5); [16]): 2 pg hGH/10^6 cells
- hGH secreted, MMHGH/5 1 h (MMH/GH5 cells (Clone 5); 50, 1 h treatment (Table 3)): 94 pg hGH/10^6 cells
- hGH secreted, MMHGH/5 1 + 24 h (MMH/GH5 cells (Clone 5); [17]): 116 pg hGH/10^6 cells
- hGH secreted, MMHGH/5 5 h (MMH/GH5 cells (Clone 5); 50, 5 h treatment (Table 3)): 47 pg hGH/10^6 cells
- hGH secreted, MMHGH/5 5 + 24 (MMH/GH5 cells (Clone 5); [18]): 9 pg hGH/10^6 cells

Structure (SMILES): CCCCC[C@H](O)/C=C/[C@H]1C=CC(=O)[C@@H]1C/C=C\CCCC(=O)O [PGA2]
- hGH secreted, PHGH 1 h [2, 5]: 1 pg hGH/10^6 cells
- hGH secreted, PHGH 1 + 24 h [2, 6]: 0 pg hGH/10^6 cells
- hGH secreted, PHGH 5 h [2, 7]: 56 pg hGH/10^6 cells
- hGH secreted, PHGH 5 + 24 [2, 8]: 10 pg hGH/10^6 cells
- hGH secreted, PHGH 1 h [2, 9]: 27 pg hGH/10^6 cells
- hGH secreted, PHGH 1 + 24 h [2, 10]: 26 pg hGH/10^6 cells
- hGH secreted, PHGH 5 h [2, 11]: 95 pg hGH/10^6 cells
- hGH secreted, PHGH 5 + 24 [2, 12]: 37 pg hGH/10^6 cells
- % cellular survival, PHGH 1 + 24 h [1, 13]: 90%
- % cellular survival, PHGH 5 + 24 [1, 13]: 90%
- % cellular survival, PHGH 1 + 24 h [1, 14]: 90%
- % cellular survival, PHGH 5 + 24 [1, 14]: 90%
- % cellular survival, MMHGH/5 1 + 24 h (MMH/GH5 cells; [13]): 90%
- % cellular survival, MMHGH/5 5 + 24 (MMH/GH5 cells; [13]): 90%
- % cellular survival, MMHGH/5 1 + 24 h (MMH/GH5 cells; [14]): 90%
- % cellular survival, MMHGH/5 5 + 24 (MMH/GH5 cells; [14]): 90%
- hGH secreted, MMHGH/5 1 h (MMH/GH5 cells (Clone 5); 25, 1 h treatment): 1 pg hGH/10^6 cells
- hGH secreted, MMHGH/5 1 + 24 h (MMH/GH5 cells (Clone 5); [15]): 2 pg hGH/10^6 cells
- hGH secreted, MMHGH/5 5 h (MMH/GH5 cells (Clone 5); 25, 5 h treatment): 53 pg hGH/10^6 cells
- hGH secreted, MMHGH/5 5 + 24 (MMH/GH5 cells (Clone 5); [16]): 0 pg hGH/10^6 cells
- hGH secreted, MMHGH/5 1 h (MMH/GH5 cells (Clone 5); 50, 1 h treatment (Table 3)): 8 pg hGH/10^6 cells
- hGH secreted, MMHGH/5 1 + 24 h (MMH/GH5 cells (Clone 5); [17]): 92 pg hGH/10^6 cells
- hGH secreted, MMHGH/5 5 h (MMH/GH5 cells (Clone 5); 50, 5 h treatment (Table 3)): 107 pg hGH/10^6 cells
- hGH secreted, MMHGH/5 5 + 24 (MMH/GH5 cells (Clone 5); [18]): 0 pg hGH/10^6 cells

Structure (SMILES): Oc1c(Cl)c(Cl)c(O)c(Cl)c1Cl [TCHQ, TetraChloroHydroQuinone]
- response in PHGH ([2]; compared with PCP, words): stronger response
- % vitality of the cells, PHGH 1 + 24 h [1, 3]: 50%
- % vitality of the cells, PHGH 5 + 24 h [1, 3]: 60%
- % vitality of the cells, PHGH 1 + 24 h [1, 4]: 0%
- % vitality of the cells, PHGH 5 + 24 h [1, 4]: 0%
- % vitality of the cells, MMH/GH 1 + 24 h (MMH/GH5 cells; [3]): 50%
- % vitality of the cells, MMH/GH 5 + 24 h (MMH/GH5 cells; [3]): 30%
- % vitality of the cells, MMH/GH 1 + 24 h (MMH/GH5 cells; [4]): 10%
- % vitality of the cells, MMH/GH 5 + 24 h (MMH/GH5 cells; [4]): 0%
- response in MMH/GH5 (MMH/GH5 cells (Clone 5); compared with PCP, words): stronger response
